The text below walks through data of patent US20120245184A1 (Aderans Research Institute, Inc., priority 2006, published 2012).

Structures can show the parent of a compound that is named as a salt.

The subject of test [1] is sonic hedgehog pathway. Nature of the test: Human hedgehog reporter assay Daoy-GliLuc (DGL). It counts as cell-based. Particulars: Daoy human medulloblastoma cells, gli-luciferase reporter; read-out: Daoy Avg. EC50. The essentials:
(§1)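 Stable gli-luciferase reporter lines (mouse TM3; human Daoy and HEPM) switched to 0.5% FBS medium, given compounds at 1-5 μM with or without octyl-modified hedgehog protein (1-5 ng/ml) for 24 hrs. Luminescence read; eleven-point 1:3 dose curves, activation expressed as percentage of plate controls (AMAX).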
Background: Reporter assays use an easily measured gene product as a stand-in for the process of interest.

The test system of test [2] is sonic hedgehog pathway. Nature of the test: Hedgehog reporter assay (gli-luciferase) in TM3 cells. Particulars: TM3 mouse Leydig cells, gli-luciferase reporter; read-out: TM3 Avg. EC50. It counts as cell-based, mouse. Put shortly: as §1
Test [3] concerns sonic hedgehog pathway. Nature of the test: Human hedgehog reporter assay HEPM-GliLuc (HGL). Format: cell-based. Particulars: HepM human embryonic palatal mesenchymal cells, gli-luciferase reporter; read-out: HEPM Avg. EC50. The essentials: as §1
Test [4] has as its system sonic hedgehog pathway. Nature of the test: Hedgehog reporter assay (gli-luciferase) in S12 cells. It counts as cell-based. The settings on record: S12 mouse embryonic mesenchymal cells, read-out: S12 Avg. EC50. An excerpt:
Mouse (TM3: mouse Leydig cells; S12: mouse embryonic mesenchymal cells) and human (Daoy: human medulloblastoma cell; HepM: human embryonic palatal mesenchymal cell) cell lines are used to screen small molecules for their ability to modulate the activity of the sonic hedgehog pathway (Table 1, Table 2, and Table 3). Stable hedgehog pathway reporter cell lines are established by specific antibiotic selection following transfection of a reporter plasmid containing a luciferase gene located directly downstream from the gli promoter. Consequently, any observable changes in cellular luciferase activity may be attributed to changes in sonic hedgehog pathway activity in mouse and human cells, respectively, since gli is the major by-product of this pathway. To calculate activity, we generate an eleven point dose curve for each compound using 1:3 dilutions in 96 well assay plates. Each plate tested also contains low and high control to establish maximal pathway activation so to establish/compare a percentage activation of each tested compound (AMAX) on respective plates. Also we calculate EC50 values, or a concentration where the pathway will be exactly 50% activated, for each tested compound to determine potency. In these cell lines, compounds that register >20% AMAX values are considered active.
Stable hedgehog pathway reporter cell lines are established following specific antibiotic selection following transfection of a reporter plasmid
In short, typically cells are plated in MicroTiter-plates at 10,000-20,000 cells per well, in growth media (containing 10%-20% FBS). After 48-72 hrs (HGL and DGL respectively) the media in the assay plates is switched to low-serum containing media (0.5% FBS). At that time compounds are added (at 1-5 μM) to the assay plates, in the presence or absence of hedgehog protein (octyl-modified version; 1-5 ng/ml). After another 24 hrs of incubation, the media from the assay plates is discarded and replaced with luciferase assay-mix. Subsequently, plates are incubated at RT for ˜15-30 mins and then read in a luminometer. [note: addition of the Hedgehog protein, although not critical, will sensitize the assay allowing the identification of weak actives].

The subject of the next test is C57BL/6 male mice. The test is described as follows: C57BL/6 hair growth after topical dosing. Format: in vivo, mouse. The settings on record: dosed topically once on shaved lower back; visually graded for melanogenesis and hair regrowth. As to the method:
A mouse model of male pattern baldness is used to investigate the effectiveness of the present compounds for growing hair. Agonists for the sonic hedgehog pathway that act by binding and activating Smoothened were tested in a formulation of 50:30:20 PG:EtOH:water or 5:95 DMSO:acetone vehicle. C57BL/6 male mice (48-52 days old on arrival) from Charles River Labs were used on the study. The mice were housed and cared for according to established procedures. Food and water were ad libitum. On Day 0, the mice were shaved on their lower back, an area of ˜1.5 inches×˜2 inches with Wahl clippers using a surgical blade. On day −3, the mice were anesthetized with isoflurane, their back was rinsed with a pad of 70% ethanol, a placebo pellet or a DHT pellet (2.5 mg 21 day pellet) were implanted subcutaneously between the shoulder blades with a 10 gauge trochar. DHT pellet transplantation results in maintenance of existing hair follicles in the resting (telogen) phase. The hole was stapled with a sterile autoclip and the mice were returned to their cage after awaking. The mice were dosed topically once and visually graded daily, except weekends, for melanogenesis and hair regrowth of fur in the dosed area (Table 4).

For `CN[C@H]1CC[C@H](N(Cc2cc(-c3ccc(N)nc3)ccc2OC)C(=O)c2sc3cccc(F)c3c2Cl)CC1` [362 (R13), 3-Chloro-4-fluoro-benzo[b]thiophene-2-carboxylic acid[5-(6-amino-pyridin-3-yl)-2-methoxy-benzyl]-(4-methylamino-cyclohexyl)-amide dihydrochloride], the EC50 in the test on sonic hedgehog pathway [1], in the test on sonic hedgehog pathway [2], in the test on sonic hedgehog pathway [3] and in the test on sonic hedgehog pathway [4] was less than 0.05 µM in each case.
In the case of `CNC1CCC(N(Cc2cc(-c3ccc(C(C)=O)cc3)ccc2OC)C(=O)c2sc3c(F)ccc(F)c3c2Cl)CC1` (stereo not drawn) [Compound 332, 3-Chloro-4,7-difluoro-benzo[b]thiophene-2-carboxylic acid (4′-acetyl-4-methoxy-biphenyl-3-ylmethyl)-(4-methylamino-cyclohexyl)-amide hydrochloride], the EC50 in the test with sonic hedgehog pathway [1], with sonic hedgehog pathway [2], in the test on sonic hedgehog pathway [3] and in the test with sonic hedgehog pathway [4] was less than 0.05 µM each time.
Take `CNC1CCC(N(Cc2cc(-c3ccnc(C(=O)OC)c3)ccc2OC)C(=O)c2sc3c(F)ccc(F)c3c2Cl)CC1` (stereo not drawn) [Compound R5, Methyl 4-(3-{[(3-chloro-4,7-difluoro-benzo[b]thiophene-2-carbonyl)-(4-methylamino-cyclohexyl)-amino]-methyl}-4-methoxy-phenyl)-pyridine-2-carboxylate]: the EC50 with sonic hedgehog pathway [1], in the test on sonic hedgehog pathway [2], in the test with sonic hedgehog pathway [3] and in the test on sonic hedgehog pathway [4] was less than 0.05 µM throughout.
As to `CC[C@H]1CC[C@@H](N(Cc2cc(-c3ccc(C)cc3)ccc2OC)C(=O)C2=C(C)c3c(C)ccc(C)c3C2)CC1` [Compound 334, 3-Chloro-4,7-difluoro-benzo[b]thiophene-2-carboxylic acid[2-methoxy-5-(6-methyl-pyridin-3-yl)-benzyl]-(4-methylamino-cyclohexyl)-amide bis(trifluoroacetate)], the EC50 in the test with sonic hedgehog pathway [1], with sonic hedgehog pathway [2], in the test on sonic hedgehog pathway [3] and with sonic hedgehog pathway [4] was less than 0.05 µM throughout.
Turning to `CNC1CCC(N(Cc2cc(-c3ccnc(C(N)=O)c3)ccc2OC)C(=O)c2sc3c(F)ccc(F)c3c2Cl)CC1` (stereo not drawn) [Compound 354 (R17), 4-(3-{[(3-Chloro-4,7-difluoro-benzo[b]thiophene-2-carbonyl)-(4-methylamino-cyclohexyl)-amino]-methyl}-4-methoxy-phenyl)-pyridine-2-carboxylic acid amide dihydrochloride], the half-maximal effective concentration (EC50) in the test on sonic hedgehog pathway [1], in the test on sonic hedgehog pathway [2], with sonic hedgehog pathway [3] and in the test on sonic hedgehog pathway [4] was less than 0.05 µM throughout.
On to `CCOc1ccc(-c2ccc(C)nc2)cc1CN(C(=O)c1sc2ccccc2c1Cl)[C@H]1CC[C@H](NC)CC1`, for which the “C57BL/6 Hair Growth” value with C57BL/6 male mice is recorded as “yes”.
Same read-out and setting: as for `CN[C@H]1CC[C@H](N(Cc2cc(-c3ccnc(C(=O)O)c3)ccc2OC)C(=O)c2sc3c(F)ccc(F)c3c2Cl)CC1`, the entry is “no”.
`CCOc1ccc(-c2ccc(C#N)cc2)cc1CN(C(=O)c1sc2ccccc2c1Cl)[C@H]1CC[C@H](NC)CC1`: the “C57BL/6 Hair Growth” value in the test with C57BL/6 male mice is “yes”.
Turning to `CNC1CCC(N(Cc2cc(-c3ccc(C(N)=O)cc3)ccc2OC)C(=O)c2sc3ccccc3c2Cl)CC1` (stereo not drawn) [Compound 316, 3-Chloro-benzo[b]thiophene-2-carboxylic acid (4′-carbamoyl-4-methoxy-biphenyl-3-ylmethyl)-(4-methylamino-cyclohexyl)-amide hydrochloride], the EC50 in the test with sonic hedgehog pathway [2], in the test on sonic hedgehog pathway [3] and in the test with sonic hedgehog pathway [4] was less than 0.05 µM each time.
For `CN[C@H]1CC[C@@H](N(Cc2cc(-c3ccc(CO)cc3)ccc2OC)C(=O)c2sc3c(C)ccc(C)c3c2Cl)CC1` [Compound 338, 3-Chloro-4,7-difluoro-benzo[b]thiophene-2-carboxylic acid(4′-hydroxymethyl-4-methoxy-biphenyl-3-ylmethyl)-(4-methylamino-cyclohexyl)-amide trifluoroacetate], the EC50 in the test on sonic hedgehog pathway [1], in the test on sonic hedgehog pathway [2], in the test with sonic hedgehog pathway [3] and in the test with sonic hedgehog pathway [4] was less than 0.05 µM throughout.
Turning to `CNC1CCC(N(Cc2cc(-c3cccnc3)ccc2OC)C(=O)c2sc3cccc(F)c3c2Cl)CC1` (stereo not drawn) [360 (R16), 3-Chloro-4-fluoro-benzo[b]thiophene-2-carboxylic acid (2-methoxy-5-pyridin-3-yl-benzyl)-(4-methylamino-cyclohexyl)-amide dihydrochloride], the EC50 in the test with sonic hedgehog pathway [1], in the test with sonic hedgehog pathway [2], in the test on sonic hedgehog pathway [3] and with sonic hedgehog pathway [4] was less than 0.05 µM throughout.
Regarding `CNC1CCC(N(Cc2cc(-c3ccc(CO)cc3)ccc2OC)C(=O)c2sc3ccccc3c2Cl)CC1` (stereo not drawn) [Compound 329, 3-Chloro-benzo[b]thiophene-2-carboxylic acid (4′-hydroxymethyl-4-methoxy-biphenyl-3-ylmethyl)-(4-methylamino-cyclohexyl)-amide hydrochloride], the concentration giving a half-maximal response (EC50) in the test on sonic hedgehog pathway [2], with sonic hedgehog pathway [3] and in the test with sonic hedgehog pathway [4] was less than 0.05 µM each time.
For `CNc1cc(-c2ccc(OC)c(CN(C(=O)c3sc4c(F)ccc(F)c4c3Cl)C3CCC(NC)CC3)c2)ccn1` (stereo not drawn) [Compound 357, 3-Chloro-4,7-difluoro-benzo[b]thiophene-2-carboxylic acid[2-methoxy-5-(2-methylamino-pyridin-4-yl)-benzyl]-(4-methylamino-cyclohexyl)-amide bis(trifluoroacetate)], the EC50 in the test with sonic hedgehog pathway [1], in the test with sonic hedgehog pathway [2], in the test on sonic hedgehog pathway [3] and in the test on sonic hedgehog pathway [4] was less than 0.05 µM throughout.
For `CNC1CCC(N(Cc2cc(-c3ccc(C(=O)N(C)C)cc3)ccc2OC)C(=O)c2sc3c(F)ccc(F)c3c2Cl)CC1` (stereo not drawn) [Compound 333, 3-Chloro-4,7-difluoro-benzo[b]thiophene-2-carboxylic acid (4′-dimethylcarbamoyl-4-methoxy-biphenyl-3-ylmethyl)-(4-methylamino-cyclohexyl)-amide hydrochloride], the EC50 in the test with sonic hedgehog pathway [1], with sonic hedgehog pathway [2], with sonic hedgehog pathway [3] and in the test with sonic hedgehog pathway [4] was less than 0.05 µM in each case.
`CN[C@H]1CC[C@@H](N(Cc2cc(-c3ccc(N(C)C(C)=O)cc3)ccc2OC)C(=O)c2sc3c(C)ccc(C)c3c2C)CC1` [Compound 336, 3-Chloro-4,7-difluoro-benzo[b]thiophene-2-carboxylic acid[4′-(acetyl-methyl-amino)-4-methoxy-biphenyl-3-ylmethyl]-(4-methylamino-cyclohexyl)-amide hydrochloride]: the EC50 with sonic hedgehog pathway [1], with sonic hedgehog pathway [2], in the test on sonic hedgehog pathway [3] and in the test with sonic hedgehog pathway [4] was less than 0.05 µM in each case.
For the compound `CN[C@H]1CC[C@@H](N(Cc2cc(-c3ccc(S(C)(=O)=O)cc3)ccc2OC)C(=O)C2=C(Cl)c3c(C)ccc(C)c3C2)CC1` [Compound 335, 3-Chloro-4,7-difluoro-benzo[b]thiophene-2-carboxylic acid(4′-methanesulfonyl-4-methoxy-biphenyl-3-ylmethyl)-(4-methylamino-cyclohexyl)-amide hydrochloride], the EC50 in the test with sonic hedgehog pathway [1], in the test on sonic hedgehog pathway [2], in the test with sonic hedgehog pathway [3] and in the test with sonic hedgehog pathway [4] was less than 0.05 µM throughout.
In the case of `CNC1CCC(N(Cc2cc(-c3ccccn3)ccc2OC)C(=O)c2sc3c(F)ccc(F)c3c2Cl)CC1` (stereo not drawn) [Compound 367, 3-Chloro-4,7-difluoro-benzo[b]thiophene-2-carboxylic acid (2-methoxy-5-pyridin-2-yl-benzyl)-(4-methylamino-cyclohexyl)-amide dihydrochloride], the concentration for a half-maximal effect (EC50) with sonic hedgehog pathway [1], in the test with sonic hedgehog pathway [2], with sonic hedgehog pathway [3] and in the test on sonic hedgehog pathway [4] was less than 0.05 µM in each case.
